This passage reports GI50 and TGI results from PubChem BioAssay (NCI).

Test systems include EKVX NSCLC; HS 578T breast; SNB-75 CNS; LOX IMVI melanoma; U251 CNS; ACHN renal; OVCAR-4 ovarian; UACC-62 melanoma; KM12 colon; MOLT-4 leukemia.
Test in all cases: inhibition of tumour cell growth, NCI panel, 48 h

Values joined by “and” are separate entries in the source; they are usually repeats but may differ in a detail not shown here. Equal entries are not always repeated.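 Interpolation was linear, between the two tested concentrations surrounding the appropriate level; five concentrations were tested over 48 hours in 96-well plates. GI50: concentration for 50% inhibition of growth. TGI marks complete inhibition of growth.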

As for `CCCCCCCCSC1=CC(=O)C(OC)=C(OC)C1=O`, the GI50 in the assay with EKVX NSCLC is 10.1 µM; in the assay with HS 578T breast it was 2.64 µM; in the assay with SNB-75 CNS it was 2.21 µM; with LOX IMVI melanoma, 0.767 µM; with U251 CNS, 2.8 µM; in the assay on ACHN renal, 1.58 µM. In addition, the GI50 is 1.27 µM in the assay with OVCAR-4 ovarian, 3.5 µM in the assay with UACC-62 melanoma, 3.43 µM in the assay on KM12 colon and 1.87 µM with MOLT-4 leukemia. Further, the TGI in the assay with EKVX NSCLC was 24.8 µM; in the assay with HS 578T breast it was 9.85 µM; with SNB-75 CNS, 16.7 µM; in the assay on LOX IMVI melanoma, 2.11 µM; in the assay on U251 CNS, 11.7 µM; in the assay with ACHN renal, 2.98 µM. The TGI was 3.14 µM with OVCAR-4 ovarian, 13.9 µM in the assay with UACC-62 melanoma, 13.7 µM in the assay with KM12 colon and over 100 µM in the assay on MOLT-4 leukemia.
Turning to `O=Nc1c(-c2cccc([N+](=O)[O-])c2)nc2ncccn12`, the GI50 in the assay with EKVX NSCLC was 18.3 µM; with HS 578T breast, 12.8 µM; with SNB-75 CNS it was 10.9 µM; in the assay on LOX IMVI melanoma it was 11.6 µM; in the assay on U251 CNS, 13.9 µM; with ACHN renal, 8.73 µM. The GI50 was 12 µM in the assay with OVCAR-4 ovarian, 14.4 µM in the assay on UACC-62 melanoma, 12.4 µM with KM12 colon and 1.79 µM with MOLT-4 leukemia. Besides, the TGI in the assay on EKVX NSCLC is 43.3 µM; with HS 578T breast, 47.4 µM; in the assay on SNB-75 CNS it was 23.8 µM; in the assay on LOX IMVI melanoma it was 27 µM; in the assay on U251 CNS, 32.5 µM; with ACHN renal, 23.2 µM. Also, the TGI in the assay on OVCAR-4 ovarian was found to be 55.2 µM; in the assay with UACC-62 melanoma, 29.3 µM; in the assay with KM12 colon, 26.8 µM; with MOLT-4 leukemia, 5.31 µM.
On to `Nc1nc(Cl)nc2c1ncn2C1O[C@H](CO)[C@@H](O)[C@@H]1F` (stereo partly specified), for which the GI50 in the assay on EKVX NSCLC is 1.51 µM; in the assay on HS 578T breast, over 94.2 µM; with SNB-75 CNS, 2.25 µM; with LOX IMVI melanoma, 0.468 µM; in the assay with U251 CNS it was 0.442 µM; with ACHN renal, 0.33 µM. Also, the GI50 in the assay on OVCAR-4 ovarian was over 100 µM; with UACC-62 melanoma, 0.362 µM; in the assay with KM12 colon, 29.7 µM; in the assay with MOLT-4 leukemia, 0.033 µM. In addition, the TGI in the assay with EKVX NSCLC, in the assay with HS 578T breast, in the assay with SNB-75 CNS, with LOX IMVI melanoma, with U251 CNS and with OVCAR-4 ovarian was over 100 µM throughout. Also, the TGI in the assay with UACC-62 melanoma and in the assay with KM12 colon was over 100 µM each time.
For the compound `CN(C)CCn1cc(-c2ccc3c(Nc4ccc(CC(=O)Nc5cccc(F)c5)cc4)ncnc3c2)cn1`, the GI50 in the assay on EKVX NSCLC is 5.89 µM; in the assay with HS 578T breast, 1.92 µM; with SNB-75 CNS it was 0.0472 µM; in the assay on LOX IMVI melanoma, 1.33 µM; in the assay on U251 CNS, 1.56 µM; in the assay on ACHN renal, 4.24 µM. The GI50 with OVCAR-4 ovarian was 1.53 µM; with UACC-62 melanoma, 6.4 µM; in the assay on KM12 colon, 0.393 µM; with MOLT-4 leukemia, 2.51 µM. In addition, the TGI in the assay with EKVX NSCLC was over 10 µM; in the assay on HS 578T breast, over 10 µM; in the assay on SNB-75 CNS, over 10 µM; with LOX IMVI melanoma, 3.02 µM; with U251 CNS, 3.45 µM; in the assay on ACHN renal, over 10 µM. For the same compound, the TGI is 3.09 µM in the assay with OVCAR-4 ovarian, over 10 µM in the assay on UACC-62 melanoma, 1.97 µM in the assay on KM12 colon and over 10 µM in the assay with MOLT-4 leukemia.
As to `COC(=O)c1c(-c2ccccc2)csc1NC(=O)c1c(-c2ccccc2)noc1C`, the TGI was over 100 µM with EKVX NSCLC; over 100 µM with HS 578T breast; over 100 µM with SNB-75 CNS; 3.56 µM in the assay with LOX IMVI melanoma; over 100 µM with U251 CNS; over 100 µM with ACHN renal. Moreover, the TGI in the assay on OVCAR-4 ovarian, with UACC-62 melanoma, in the assay on KM12 colon and in the assay on MOLT-4 leukemia was over 100 µM in each case. Also, the GI50 was over 100 µM with HS 578T breast; 3.59 µM in the assay on SNB-75 CNS; 0.24 µM with LOX IMVI melanoma; 0.321 µM in the assay on U251 CNS; 0.995 µM in the assay on ACHN renal; 5.38 µM with OVCAR-4 ovarian. Besides, the figures for the GI50 in the assay with UACC-62 melanoma, in the assay on KM12 colon and in the assay with MOLT-4 leukemia were 0.78 µM, 0.802 µM and 1.22 µM, respectively.
In the case of `O=C(/C=N/O)c1c(-c2ccccc2)[nH]c(-c2ccccc2)c1-c1ccccc1`, the TGI is 19 µM in the assay with EKVX NSCLC; 85.2 µM in the assay on HS 578T breast; 55.7 µM in the assay with SNB-75 CNS; 41.3 µM in the assay with LOX IMVI melanoma; 32.3 µM in the assay on U251 CNS; 43.4 µM in the assay with ACHN renal. For the same compound, the TGI in the assay with OVCAR-4 ovarian came out at 42.9 µM; with UACC-62 melanoma, 28.7 µM; in the assay on KM12 colon it was 28.2 µM; in the assay with MOLT-4 leukemia, 31.1 µM.
As to `O=[N+]([O-])c1ccc2[nH]cc(-c3c4ccccc4cc4[nH]c5ccc([N+](=O)[O-])cc5c34)c2c1`, the GI50 in the assay on EKVX NSCLC was 2.4 µM; with HS 578T breast it was 2.35 µM; with SNB-75 CNS, 1.84 µM; in the assay on LOX IMVI melanoma, 1.92 µM; in the assay with U251 CNS, 2.81 µM; with ACHN renal, 2.42 µM. Moreover, the GI50 is 1.57 µM with OVCAR-4 ovarian, 1.63 µM with UACC-62 melanoma, 1.78 µM in the assay with KM12 colon and 2.45 µM in the assay on MOLT-4 leukemia. The TGI in the assay on EKVX NSCLC was 8.41 µM; with HS 578T breast, 8.19 µM; with SNB-75 CNS, 5.93 µM; in the assay on LOX IMVI melanoma, 4.14 µM; in the assay with U251 CNS it was 8.41 µM; with ACHN renal it was 6.97 µM. The TGI with OVCAR-4 ovarian is 3.02 µM; in the assay with UACC-62 melanoma, 3.47 µM; with KM12 colon, 3.37 µM; in the assay with MOLT-4 leukemia, 6.55 µM.
In the case of `Cn1c(=O)c(F)c(Nc2ccc(I)cc2F)c2c(=O)n(C[C@@H](O)CO)cnc21`, the GI50 is 0.042 µM and 0.0485 µM with EKVX NSCLC; 5.17 µM and 1.21 µM with HS 578T breast; 4.11 µM in the assay on SNB-75 CNS; 0.0469 µM and 0.0198 µM with LOX IMVI melanoma; 0.741 µM and 0.246 µM with U251 CNS; 2.17 µM and 0.48 µM in the assay with ACHN renal. Besides, the GI50 is 6.33 µM and 1.21 µM with OVCAR-4 ovarian; < 0.01 µM and 0.00264 µM in the assay with UACC-62 melanoma; 0.0237 µM and 0.0319 µM with KM12 colon; 18.4 µM in the assay on MOLT-4 leukemia. Further, the TGI in the assay with EKVX NSCLC is over 64.1 µM; in the assay with HS 578T breast, 54.6 µM and > 3.97 µM; with SNB-75 CNS, 30.8 µM and > 2.29 µM; in the assay on LOX IMVI melanoma it was 12.5 µM and > 3.38 µM; in the assay on U251 CNS, over 49.9 µM; with ACHN renal, 40.8 µM and > 6.49 µM. For the same compound, the TGI in the assay on OVCAR-4 ovarian is over 100 µM; in the assay with KM12 colon, 39.1 µM and > 4.11 µM; in the assay on MOLT-4 leukemia, 45.1 µM and > 4.74 µM.
